Data published in article PMC11640973, “The Detection of Toxic Amyloid-β Fibril Fragments Through a Surface Plasmon Resonance Immunoassay” (International Journal of Molecular Sciences, 2024).

Columns and labels:
anti-Aβ antibody 4G8 = test: SPR immunoassay of Aβ42 binding to immobilized anti-Aβ antibody 4G8
Excerpt: This binding profile resembles closely that described previously for a solution containing monomers only. […]
For the present work, we used both the ProteOn™ XPR36 Protein Interaction Array system (Bio-Rad Laboratories, Hercules, CA, USA) and the Sierra SPR®-32 Pro (Bruker, Billerica, MA, USA). The ProteOn™ XPR36 allows for the preparation of six parallel lanes, each representing a different surface on a single chip, with, for instance, five lanes used for ligand (target) immobilization and one designated as a reference. By rotating the chip, each ligand surface can interact with up to six analytes, enabling the simultaneous analysis of up to 36 unique interactions in a single run. The Sierra SPR®-32 Pro is configured with 8 separate channels, each containing four detection spots, one of which serves as a reference spot, enabling analysis with up to 8 samples per run.
The anti-Aβ antibody 4G8 (Signet Laboratories, Emeryville, CA, USA) was immobilized on a CMD50L sensor chip (XanTec bioanalytics, Düsseldorf, Germany) using standard amine coupling chemistry, following standard protocols. A solution of 30 µg/mL 4G8 antibody in 20 mM acetate buffer pH 5.0 was injected for immobilization.
To monitor the aggregation of Aβ42 over time, we followed the general protocol described above. Briefly, Aβ42 was prepared at a final concentration of 50 µM in PBS and incubated at 37 °C. Samples were collected at various time points (0, 6, and 120 h) to capture distinct aggregated forms corresponding to monomers, oligomers/small fibrils, and fibrils. […] The signal from the 4G8-immobilized surface was corrected by subtracting the nonspecific response observed on the empty parallel reference surface.

SHSY-5Y cells = test: MTT toxicity assay on SHSY-5Y cells; format: cell-based; conditions: 24 h; for cell viability (of control): 10 nM, 95%CI fibrils 67.3–76.0%, fragmented 39.6–48.0%; for cell viability (of control) / cell viability (of controls): Bachem Aβ42, fibrils from 48 h at 37 °C, three sessions each in triplicate; for cell viability (of controls): 30 nM, 95%CI fibrils 52.1–57.3, fragmented 39.7–45.71%; for cell viability versus vehicle control cells: 10 to 100 nM, fibrils ± sonication, p < 0.01, one-way ANOVA; for toxic effect (cell viability): Bachem Aβ42, 10 to 100 nM
Procedure: SHSY-5Y cell survival was assessed using the MTT colorimetric assay after exposure to Aβ species—including monomers (t = 0), fibrils, and sonicated fibrils (48 h)—prepared and incubated at a concentration of 100 µM for aggregation. As described in the sample preparation chapter, cells were exposed to these Aβ species at final concentrations of 10, 30, and 100 nM for 24 h. Following exposure, cells were incubated with a culture medium (100 µL/well) containing a 1:10 dilution of Thiazolyl blue tetrazolium bromide (MTT; 4 mg dissolved in 1 mL DPBS). The plates were then placed in the incubator for 3 h. At the end of the incubation, the medium containing MTT was replaced with HCl-Isopropanol (1N HCl diluted 1:25 in 100% isopropanol). The absorbance of the colored solution was measured at 540 nm using a microplate spectrophotometer (F500 Infinity, Tecan, Männedorf, Switzerland).
Statistical calculations were performed using GraphPad Prism (version 9.4; GraphPad Software, Bethesda, MD, USA). Paired t-tests were used to analyze differences between experimental conditions (e.g., Figure 3), while one-way ANOVA followed by Tukey’s post hoc test was applied for multiple group comparisons (e.g., Figure 4). The data are presented as mean ± standard deviation (SD). The statistical significance was defined as p < 0.05.

[1] = SPR-based approach; ref [21]; cited from earlier work
Excerpt: In order to reliably detect transient oligomeric species in a mixture of aggregated species without sample manipulation, an immunoassay based on surface plasmon resonance (SPR) has been proposed. This method exploits the properties of an anti-Aβ antibody (4G8) for a direct and simultaneous determination of monomers and biologically relevant (i.e., toxic) transient oligomeric species, also distinguishing the latter from large fibrils. SPR is a highly quantitative technique for measuring binding kinetics and determining monomer concentrations. However, in the context of aggregation assays ...

[2] = stock solution in 50 mM NaOH (1 mg/mL), −80 °C; ref [38]; cited from earlier work
Procedure: To further validate our results, we used native forms of Aβ42. Lyophilized recombinant Aβ42 (rPepride) and the synthetic Aβ42 (Bachem) were suspended in a 50 mM NaOH solution (1 mg/mL) following the protocol of Taylor et al., which provides a simple and reliable method for the high-yield preparation of seedless Aβ monomers. […] This validated approach reduces handling variability and ensures reproducibility in experiments.

[3] = Aβ42 compared to Aβ40; ref [35]; cited from earlier work
Procedure: The lyophilized powder obtained from the synthesis and purification was suspended in 0.02% Trifluoracetic acid (TFA). The final pH of the solution was 2.8, ensuring the stability of the depsi bond and preventing premature conversion to the native peptide. The concentration was measured using UV ...

[4] = freshly prepared Aβ42 (t = 0), 5 µM
[5] = freshly prepared Aβ42 (t = 0), 5 µM in PBST (0.005% Tween), flowed over immobilized 4G8
[6] = incubated 5 days, then one freeze–thaw cycle

In the case of “fibrillar macroaggregates: Aβ42 incubated 5 days, larger suprafibrillar macroaggregates”, the “recognition of fibrillar macroaggregates by SPR” value (anti-Aβ antibody 4G8; incubated 5 days at 37 °C) is reported as “not recognized by SPR”.
In the case of “fibrils: Aβ42 purchased from Bachem, fibrils obtained after 48 h incubation at 37 °C”, the “cell viability (of control)” value (SHSY-5Y cells; MTT) is reported as 71.6%, the “cell viability (of controls)” value (SHSY-5Y cells; MTT) is reported as 54.73% and the “cell viability versus vehicle control cells” value (SHSY-5Y cells) is reported as “significantly different from the viability of control cells”. The “toxic effect (cell viability)” value (SHSY-5Y cells; MTT) was “concentration-dependent toxicity”.
With “sonicated fibrils: Aβ42 fibrils produced by tip sonication (1 min 10% power 30% cycles)” the “cell viability (of control)” value (SHSY-5Y cells; MTT) was 43.8%, the “cell viability (of controls)” value (SHSY-5Y cells; MTT) was 42.7% and the “cell viability versus vehicle control cells” value (SHSY-5Y cells) was “significantly different from the viability of control cells”. For the same molecule, the “fibril toxicity, change by fragmentation” value (SHSY-5Y cells; sonicated versus unfragmented fibrils, 10 and 30 nM, MTT) was “significantly increased by fragmentation”.
In the case of “Aβ42 monomer: freshly prepared Aβ42 solution (t = 0), containing monomers only”, the “toxic effect (cell viability)” value (SHSY-5Y cells; MTT) is reported as “rule out any toxic effect”, the “KD (calculated from the ratio koff/kon)” value (anti-Aβ antibody 4G8; Aβ42 monomer binding to immobilized 4G8, t = 0) is reported as “about 140 nM” and the “time to complete dissociation” value (anti-Aβ antibody 4G8; [4]) is reported as no more than 15 min. For the same molecule, the “time to saturation of SPR binding signal” value (anti-Aβ antibody 4G8; [4]) was “≈ 1 min”, the koff (anti-Aβ antibody 4G8; [5]) was 0.0044 s⁻¹ and the kon (anti-Aβ antibody 4G8; [5]) was 31000 M⁻¹ s⁻¹.
For O=C(O[C@@H]1Cc2c(O)cc(O)cc2O[C@@H]1c1cc(O)c(O)c(O)c1)c1cc(O)c(O)c(O)c1 [epigallocatechin gallate], the “effect on formation of Aβ42 oligomers” value [1] is given as “inhibited”.
For Amyloid-β1–42 [Aβ42], the “stability of monomeric state” value [2] is given as “at least 40 days”, the aggregation propensity [3] is given as “higher aggregation propensity” and the “dissociation of most of the binding signal” value (anti-Aβ antibody 4G8; 50 µM in PBS incubated 6 h at 37 °C, diluted to 5 µM, 15 min dissociation phase) is given as “very slow dissociation”. For the same molecule, the “SPR binding signal on immobilized 4G8” value (anti-Aβ antibody 4G8; 50 µM in PBS incubated 6 h at 37 °C, diluted to 5 µM, versus t = 0) was “marked increase in the SPR binding signal”, the “decrease in the monomer signal” value (anti-Aβ antibody 4G8; 6 h of aggregation, 50 µM in PBS, 37 °C) was 56% and the “oligomer-dependent SPR signal (slow dissociation)” value (anti-Aβ antibody 4G8; fragmentation by freeze–thaw or sonication, eight independent experiments, rPeptide, Bachem or depsi-peptide Aβ42, Proteon or Bruker, p = 0.0012 paired t-test) was “fragmentation-induced increase in SPR-detected Aβ42 oligomers”. For the same molecule, the “time to complete dissociation of signal” value (anti-Aβ antibody 4G8; incubated 5 days at 37 °C (residual monomers)) was no more than 15 min, the SPR signal (anti-Aβ antibody 4G8; incubated 5 days at 37 °C, versus 6 h and freshly prepared) was “much lower SPR signal compared to the solution incubated for 6 h (Figure 2c), and even lower than that of the freshly prepared solution” and the SPR signals (anti-Aβ antibody 4G8; [6]) was “marked increase in the SPR signals”. The “absolute amount of monomers” value (anti-Aβ antibody 4G8; [6]) was “decreased”.
In the case of “Aβ40: Aβ1–40, fragment of Amyloid Precursor Protein [reference compound]”, the aggregation propensity [3] is listed as “aggregates more slowly”.
